Conditions: 101.33 kPa, Liquid; for speed of sound: Pulse-echo method; for mass density: Vibrating tube method

C[NH2+]CCO.O=C[O-] [2-hydroxy-N-methylethanaminium formate]
Conditions	mass density [kg/m3]	speed of sound [m/s]	viscosity [mPa·s]
308.15 K	1122.67	1795.8	13.73
308.4 K	1122.53	1795.4	–
308.65 K	1122.39	1794.9	–
308.9 K	1122.25	1794.4	–
309.15 K	1122.11	1793.9	–
309.4 K	1121.97	1793.4	–
309.65 K	1121.83	1792.9	–
309.9 K	1121.69	1792.5	–
310.15 K	1121.55	1792	12.78
310.4 K	1121.41	1791.5	–
310.65 K	1121.27	1791	–
310.91 K	1121.13	1790.5	–
311.16 K	1120.99	1790	–
311.4 K	1120.85	1789.5	–
311.65 K	1120.71	1789	–
311.91 K	1120.57	1788.5	–
312.16 K	1120.43	1788	–
312.41 K	1120.29	1787.6	–
312.66 K	1120.15	1787.1	–
312.91 K	1120.02	1786.6	–
313.15 K	–	–	11.4
313.16 K	1119.87	1786.1	–
313.4 K	1119.74	1785.6	–
313.66 K	1119.6	1785.1	–
313.9 K	1119.46	1784.6	–
314.15 K	1119.32	1784.1	–
314.4 K	1119.18	1783.6	–
314.65 K	1119.04	1783.1	–
314.9 K	1118.9	1782.7	–
315.15 K	1118.77	1782.2	10.56
315.41 K	1118.62	1781.7	–
315.65 K	1118.49	1781.2	–
315.91 K	1118.35	1780.7	–
316.16 K	1118.21	1780.2	–
316.41 K	1118.07	1779.7	–
316.66 K	1117.93	1779.2	–
316.91 K	1117.79	1778.8	–
317.16 K	1117.65	1778.3	–
317.4 K	1117.52	1777.8	–
317.65 K	–	–	9.7
317.66 K	1117.38	1777.3	–
317.91 K	1117.24	1776.8	–
318.16 K	1117.1	1776.3	–
318.41 K	1116.96	1775.8	–
318.65 K	1116.82	1775.3	–
318.9 K	1116.69	1774.8	–
319.16 K	1116.55	1774.4	–
319.41 K	1116.41	1773.9	–
319.65 K	1116.27	1773.4	–
319.91 K	1116.13	1772.9	–
320.16 K	1115.99	1772.4	–
320.41 K	1115.86	1772	–
320.65 K	1115.72	1771.5	9.07
320.91 K	1115.58	1771	–
321.15 K	1115.44	1770.5	–
321.41 K	1115.3	1770	–
321.66 K	1115.16	1769.6	–
321.9 K	1115.03	1769.1	–
322.15 K	1114.89	1768.6	–
322.41 K	1114.75	1768.1	–
322.65 K	1114.61	1767.6	–
322.91 K	1114.47	1767.2	–
323.15 K	–	–	8.38
323.16 K	1114.34	1766.7	–
323.41 K	1114.2	1766.2	–
323.65 K	1114.06	1765.7	–
323.91 K	1113.92	1765.2	–
324.16 K	1113.79	1764.8	–
324.41 K	1113.65	1764.3	–
324.65 K	1113.51	1763.8	–
324.9 K	1113.38	1763.3	–
325.16 K	1113.24	1762.8	–
325.4 K	1113.1	1762.3	–
325.66 K	1112.96	1761.9	–
325.9 K	1112.83	1761.4	–
326.16 K	1112.69	1760.9	–
326.41 K	1112.55	1760.4	–
326.66 K	1112.42	1759.9	–
326.9 K	1112.28	1759.4	–
327.16 K	1112.14	1759	–
327.4 K	1112.01	1758.5	–
327.66 K	1111.87	1758	–
327.9 K	1111.74	1757.5	–
328.15 K	1111.6	1757	–
328.41 K	1111.46	1756.5	–
328.66 K	1111.33	1756	–
328.9 K	1111.19	1755.6	–
329.16 K	1111.06	1755.1	–
329.4 K	1110.92	1754.6	–
329.65 K	1110.78	1754.1	–
329.9 K	1110.65	1753.6	–
330.16 K	1110.52	1753.2	–
330.41 K	1110.38	1752.7	–
330.66 K	1110.25	1752.2	–
330.91 K	1110.12	1751.8	–
331.16 K	1109.99	1751.3	–
331.41 K	1109.86	1750.8	–
331.66 K	1109.73	1750.3	–
331.91 K	1109.6	1749.9	–
332.16 K	1109.47	1749.4	–
332.41 K	1109.34	1748.9	–
332.66 K	1109.21	1748.5	–
332.91 K	1109.08	1748	–
333.16 K	1108.95	1747.5	–
333.41 K	1108.82	1747.1	–
333.66 K	1108.69	1746.6	–
333.91 K	1108.56	1746.2	–
334.16 K	1108.43	1745.7	–
334.41 K	1108.3	1745.2	–
334.66 K	1108.18	1744.8	–
334.91 K	1108.05	1744.3	–
335.16 K	1107.92	1743.8	–
335.41 K	1107.79	1743.4	–
335.66 K	1107.67	1742.9	–
335.91 K	1107.54	1742.5	–
336.16 K	1107.42	1742	–
336.41 K	1107.29	1741.6	–
336.66 K	1107.16	1741.1	–
336.9 K	1107.03	1740.7	–
337.16 K	1106.9	1740.2	–
337.4 K	1106.78	1739.8	–
337.66 K	1106.66	1739.4	–
337.9 K	1106.53	1738.9	–
338.15 K	1106.43	1738.6	–

Reference: the NIST ThermoML archive (doi:10.1021/je900550v)
